Common to all, as to assay type: in vitro ADME
The nature of data set [1]: Human liver microsomal stability assay (Test 1). As to conditions: human liver microsomes, 0.5 uM test compound, 37° C., up to 45 minutes, pH 7.4, NADPH generating system; read-out: Test 1 T½. How it is done: (§1) (Test 1) Human liver microsomal stability assay was conducted by incubating 0.5 uM test compounds at 37° C. for up to 45 minutes in 50 mM of potassium phosphate buffer (pH 7.4) containing 0.5 mg of microsomal protein and 50 µL of NADPH generating system (7.8 mg of glucose 6-phosphate, 1.7 mg of NADPH and 6 U of glucose 6-phosphate dehydrogenase per mL in 2% w/v of sodium bicarbonate). At 0, 5, 15, 30 and 45 min., an aliquot was taken, quenched with internal standard containing stop solution. No co-factor controls at 45 minutes were also prepared. After incubation, the samples were analyzed by LC-MS/MS. Peak area ratios of analyte to internal standard were used to calculate the intrinsic clearance. The intrinsic clearance (CLint) was determined from the first order elimination constant by non-linear regression. Formation of the active drug Compound A over the time course was also monitored by LC-MS/MS analysis.
A general note: Microsomes from liver hold many membrane-bound enzymes, among them those of drug oxidation.

Data set [2] in a line: Human plasma stability assay (Test 2). Particulars: heparinated human plasma, 0.5 uM test compound, 37° C., up to 120 minutes; read-out: Test 2 T½. How it is done:
(Test 2) Human plasma stability assay was conducted by incubating 0.5 uM test compounds at 37° C. for up to 120 minutes in heparinated human plasma. At 0, 5, 15, 30, 60 and 120 […] min., an aliquot was taken, quenched with internal standard containing stop solution. After incubation, the samples were analyzed by LC-MS/MS. Peak area ratios of analyte to internal standard were used to calculate the half-life. Formation of the active drug Compound A over the time course was also monitored by LC-MS/MS analysis.

Data set [3] is described as follows: Human skin homogenate stability assay (Test 3). As to conditions: 0.5 uM test compound, 37° C., up to 45 minutes, pH 7.4, NADPH generating system, read-out: Test 3 T½. The protocol:
as §1, with “3)” for “1)”, “skin homogenate” for “liver microsomal”, “conducted in a similar way as the human liver microsomal stability assay,” for “conducted”, “human skin homogenate” for “microsomal”

Structures are written as SMILES. Bounds are passed on as bounds.

In the case of `CCCCC[C@H](O)CC[C@@H]1[C@H]2Cc3cccc(OCC(=O)OCC4CC4)c3C[C@H]2C[C@H]1O` [Compound 1, [2-Hydroxy-1-(3-hydroxy-octyl)-2,3,3a,4,9,9a-hexahydro-1H-cyclopenta[b]naphthalen-5-yloxy]-acetic acid cyclopropylmethyl ester], the half-life at 0.5 uM in data set [1] and in data set [2] was below 15 min throughout.

With `CCCCC[C@H](O)CC[C@@H]1[C@H]2Cc3cccc(OCC(=O)OCCCF)c3C[C@H]2C[C@H]1O` [Compound 4, [2-Hydroxy-1-(3-hydroxy-octyl)-2,3,3a,4,9,9a-hexahydro-1H-cyclopenta[b]naphthalen-5-yloxy]-acetic acid 3-fluoro-propyl ester], the half-life at 0.5 uM in data set [1] and in data set [2] was below 15 min in each case.

On to `CCCCC[C@H](O)CC[C@@H]1[C@H]2Cc3cccc(OCC(=O)OC4CCOC4)c3C[C@H]2C[C@H]1O` (stereo partly shown) [Compound 5, [2-Hydroxy-1-(3-hydroxy-octyl)-2,3,3a,4,9,9a-hexahydro-1H-cyclopenta[b]naphthalen-5-yloxy]-acetic acid tetrahydro-furan-3-yl ester], for which the half-life at 0.5 uM in data set [1] and in data set [2] was below 15 min throughout.

Regarding `CCCCC[C@H](O)CC[C@@H]1[C@H]2Cc3cccc(OCC(=O)O[C@H](C)C(=O)OC)c3C[C@H]2C[C@H]1O` [Compound 6, 2-{2-[2-Hydroxy-1-(3-hydroxy-octyl)-2,3,3a,4,9,9a-hexahydro-1H-cyclopenta[b]naphthalen-5-yloxy]-acetoxy}-propionic acid methyl ester], the half-life at 0.5 uM in data set [1] and in data set [2] was below 15 min throughout.

On to `CCCCC[C@H](O)CC[C@@H]1[C@H]2Cc3cccc(OCC(=O)NCCN)c3C[C@H]2C[C@H]1O` [Compound 8, N-(2-Amino-ethyl)-2-[2-hydroxy-1-(3-hydroxy-octyl)-2,3,3a,4,9,9a-hexahydro-1H-cyclopenta[b]naphthalen-5-yloxy]-acetamide], for which the half-life at 0.5 uM in data set [1] fell in the range of 31 to 60 min.

With `CCCCC[C@H](O)CC[C@@H]1[C@H]2Cc3cccc(OCC(=O)OCCO)c3C[C@H]2C[C@H]1O` [Compound 9, [2-Hydroxy-1-(3-hydroxy-octyl)-2,3,3a,4,9,9a-hexahydro-1H-cyclopenta[b]naphthalen-5-yloxy]-acetic acid 2-hydroxy-ethyl ester], the half-life at 0.5 uM in data set [1] was below 15 min.

As to `CCCCC[C@H](O)CC[C@@H]1[C@H]2Cc3cccc(OCC(=O)OCCOC)c3C[C@H]2C[C@H]1O` [Compound 10, [2-Hydroxy-1-(3-hydroxy-octyl)-2,3,3a,4,9,9a-hexahydro-1H-cyclopenta[b]naphthalen-5-yloxy]-acetic acid 2-methoxy-ethyl ester], the half-life at 0.5 uM in data set [1] is below 15 min.

As for `CCCCC[C@H](O)CC[C@@H]1[C@H]2Cc3cccc(OCC(=O)NCCCO)c3C[C@H]2C[C@H]1O` [Compound 11, 2-[2-Hydroxy-1-(3-hydroxy-octyl)-2,3,3a,4,9,9a-hexahydro-1H-cyclopenta[b]naphthalen-5-yloxy]-N-(3-hydroxy-propyl)-acetamide], the half-life at 0.5 uM in data set [1] is below 15 min; in data set [2], above 60 min.

On to `CCCCC[C@H](O)CC[C@@H]1[C@H]2Cc3cccc(OCC(=O)NCC(=O)OC)c3C[C@H]2C[C@H]1O` [Compound 12, {2-[2-Hydroxy-1-(3-hydroxy-octyl)-2,3,3a,4,9,9a-hexahydro-1H-cyclopenta[b]naphthalen-5-yloxy]-acetylamino}-acetic acid methyl ester], for which the figures for the half-life at 0.5 uM in data set [1] and in data set [2] were below 15 min and above 60 min, respectively.

As for `CCCCC[C@H](O)CC[C@@H]1[C@H]2Cc3cccc(OCC(=O)OC)c3C[C@H]2C[C@H]1O` [Compound 15, [2-Hydroxy-1-(3-hydroxy-octyl)-2,3,3a,4,9,9a-hexahydro-1H-cyclopenta[b]naphthalen-5-yloxy]-acetic acid methyl ester], the half-life at 0.5 uM in data set [1], in data set [2] and in data set [3] was below 15 min throughout.

As for `CCCCC[C@H](O)CC[C@@H]1[C@H]2Cc3cccc(OCC(=O)OCC(C)(C)C)c3C[C@H]2C[C@H]1O` [Compound 16, [2-Hydroxy-1-(3-hydroxy-octyl)-2,3,3a,4,9,9a-hexahydro-1H-cyclopenta[b]naphthalen-5-yloxy]-acetic acid 2,2-dimethyl-propyl ester], the half-life at 0.5 uM in data set [1] is below 15 min; in data set [2], 15 to 30 min; in data set [3], 15 to 30 min.

Turning to `CCCCC[C@H](O)CC[C@@H]1[C@H]2Cc3cccc(OCC(=O)OC(C)C(C)C)c3C[C@H]2C[C@H]1O` (stereo partly shown) [Compound 17, [2-Hydroxy-1-(3-hydroxy-octyl)-2,3,3a,4,9,9a-hexahydro-1H-cyclopenta[b]naphthalen-5-yloxy]-acetic acid 1,2-dimethyl-propyl ester], the half-life at 0.5 uM in data set [1] was below 15 min; in data set [2], 31 to 60 min; in data set [3] it was 15 to 30 min.

Turning to `CCCCC[C@H](O)CC[C@@H]1[C@H]2Cc3cccc(OCC(=O)NCC(F)(F)C(F)(F)F)c3C[C@H]2C[C@H]1O` [Compound 21, 2-[2-Hydroxy-1-(3-hydroxy-octyl)-2,3,3a,4,9,9a-hexahydro-1 H-cyclopenta[b]naphthalen-5-yloxy]-N-(2,2,3,3,3-pentafluoro-propyl)-acetamide], the half-life at 0.5 uM in data set [1] was below 15 min; in data set [2], above 60 min.

Consider `CCCCC[C@H](O)CC[C@@H]1[C@H]2Cc3cccc(OCC(=O)OC)c3C[C@H]2C[C@H]1OC(=O)CC(C)C` [Compound 23, 3-Methyl-butyric acid 1-(3-hydroxy-octyl)-5-methoxycarbonylmethoxy-2,3,3a,4,9,9a-hexahydro-1H-cyclopenta[b]naphthalen-2-yl ester], for which the figures for the half-life at 0.5 uM in data set [1] and in data set [2] were below 15 min and above 60 min, respectively.

Consider `CCCCC[C@H](O)CC[C@@H]1[C@H]2Cc3cccc(OCC(=O)OC)c3C[C@H]2C[C@H]1OC(=O)C1CC1` [Compound 24, Cyclopropanecarboxylic acid 1-(3-hydroxy-octyl)-5-methoxycarbonylmethoxy-2,3,3a,4,9,9a-hexahydro-1H-cyclopenta[b]naphthalen-2-yl ester], for which the half-life at 0.5 uM in data set [1] was below 15 min; in data set [2] it was above 60 min.

With `CCCCC[C@H](O)CC[C@@H]1[C@H]2Cc3cccc(OCC(=O)OC)c3C[C@H]2C[C@H]1OC(=O)CCC(=O)OCC` [Compound 27, Succinic acid ethyl ester 1-(3-hydroxy-octyl)-5-methoxycarbonylmethoxy-2,3,3a,4,9,9a-hexahydro-1H-cyclopenta[b]naphthalen-2-yl ester], the half-life at 0.5 uM in data set [1] is below 15 min; in data set [2], above 60 min.

With `CCCCC[C@H](O)CC[C@@H]1[C@H]2Cc3cccc(OCC(=O)OC(C)(C)C)c3C[C@H]2C[C@H]1O` [Compound 28, [2-Hydroxy-1-(3-hydroxy-octyl)-2,3,3a,4,9,9a-hexahydro-1H-cyclopenta[b]naphthalen-5-yloxy]-acetic acid tert-butyl ester], the half-life at 0.5 uM in data set [1] is below 15 min; in data set [2], 15 to 30 min.
